# Reference: ChEMBL document CHEMBL1157402, “Solid-phase total synthesis of cyclic decapeptide phakellistatin 12” (2008)
# Peptide text beside a SMILES is read from it.
# System: P388
# Test: Anticancer activity against mouse P388 cells
# Format: functional
# Conditions: read-out: ED50 (the source's name)
row,EC50 [µg/mL],Structure (SMILES)
1,0.2,CC[C@H](C)[C@@H]1NC(=O)[C@H](Cc2ccccc2)NC(=O)[C@@H]2CCCN2C(=O)[C@H](Cc2ccccc2)NC(=O)[C@@H]2CCCN2C(=O)[C@H](CCC(N)=O)NC(=O)[C@@H]2CCCN2C(=O)[C@H](Cc2ccccc2)NC1=O [PHAKELLI STATIN 11] (cyclo(FIFPQPFP))
2,0.34,CC[C@H](C)[C@@H]1NC(=O)[C@@H]2CCCN2C(=O)[C@H](Cc2ccccc2)NC(=O)[C@@H]2CCCN2C(=O)[C@H](Cc2ccc(O)cc2)NC(=O)[C@@H]2CCCN2C(=O)[C@H]([C@@H](C)CC)NC1=O [PHAKELLISTATIN 2] (cyclo(FPIIPYP))
3,2.8,CC[C@H](C)[C@@H]1NC(=O)[C@@H]2CCCN2C(=O)[C@@H]2CCCN2C(=O)[C@H]([C@@H](C)CC)NC(=O)[C@H](Cc2ccc(O)cc2)NC(=O)[C@@H]2CCCN2C(=O)[C@@H]2CCCN2C(=O)[C@H](CC(C)C)NC(=O)[C@H]([C@@H](C)O)NC(=O)[C@H](Cc2ccccc2)NC1=O [PHAKELLISTATIN 12] (cyclo(FTLPPYIPPI))
4,0.23,CC[C@H](C)[C@@H]1NC(=O)[C@H](C)NC(=O)[C@H](CCSC)NC(=O)[C@H](C)NC(=O)[C@H](CC(N)=O)NC(=O)[C@H](Cc2ccccc2)NC(=O)[C@@H]2CCCN2C1=O [PHAKELLI STATIN 5] (cyclo(AIPFNAM))
